Measured values: ChEMBL document CHEMBL4622944 (Bioorg Med Chem Lett, 2020)

Tests used:
Format in all cases: functional, cell-based
A549 = experiment: Antiproliferative activity against human A549 cells assessed as reduction in cell viability by MTT assay
HCT-116 = experiment: Antiproliferative activity against human HCT116 cells assessed as reduction in cell viability by MTT assay
PC-3 = experiment: Antiproliferative activity against human PC3 cells assessed as reduction in cell viability by MTT assay

| IC50 (A549) [µM] | IC50 (HCT-116) [µM] | IC50 (PC-3) [µM] | Compound |
| --- | --- | --- | --- |
| 12.8 | 17.7 | 11.6 | Cn1c(=O)c(=O)n(C2CCCC2)c2nc(N/N=C/c3ccc(O)c(Br)c3)ncc21 |
| 11 | 13.8 | 15.2 | Cn1c(=O)c(=O)n(C2CCCC2)c2nc(N/N=C/c3ccc(F)cc3Cl)ncc21 |
| > 100 | 37.2 | 36.3 | Cn1c(=O)c(=O)n(C2CCCC2)c2nc(N/N=C/c3cccc(O)c3)ncc21 |
| 39.1 | 26.4 | 17.2 | Cn1c(=O)c(=O)n(C2CCCC2)c2nc(N/N=C/c3cccc(Cl)c3Cl)ncc21 |
| 8.78 | 5.61 | 9.26 | Cn1c(=O)c(=O)n(C2CCCC2)c2nc(N/N=C/c3cc([N+](=O)[O-])ccc3Cl)ncc21 |
| 6.89 | 9.81 | 8.42 | Cn1c(=O)c(=O)n(C2CCCC2)c2nc(N/N=C/c3ccc(Cl)cc3)ncc21 |
| 84.5 | 86.6 | 26.6 | Cn1c(=O)c(=O)n(C2CCCC2)c2nc(N/N=C/c3ccc(S(C)(=O)=O)cc3)ncc21 |
| > 100 | 72.5 | > 100 | Cn1c(=O)c(=O)n(C2CCCC2)c2nc(N/N=C/c3ccc(O)cc3)ncc21 |
| 6.59 | 8.39 | 9.25 | Cn1c(=O)c(=O)n(C2CCCC2)c2nc(N/N=C/c3ccc(F)cc3Br)ncc21 |
| 9.41 | 9.02 | 8.55 | Cn1c(=O)c(=O)n(C2CCCC2)c2nc(N/N=C/c3ccc(F)c(Cl)c3)ncc21 |
| 12.3 | 15.2 | 20.3 | Cn1c(=O)c(=O)n(C2CCCC2)c2nc(N/N=C/c3cccc([N+](=O)[O-])c3)ncc21 |
| 34.5 | > 100 | 53.6 | Cc1cccc(/C=N/Nc2ncc3c(n2)n(C2CCCC2)c(=O)c(=O)n3C)c1 |
| 27.4 | 45.8 | 20.7 | COc1cccc(/C=N/Nc2ncc3c(n2)n(C2CCCC2)c(=O)c(=O)n3C)c1 |
| 12.9 | 6.15 | 7.18 | Cn1c(=O)c(=O)n(C2CCCC2)c2nc(N/N=C/c3ccc(OC(F)(F)F)cc3)ncc21 |
| > 100 | 52.6 | 75.6 | Cn1c(=O)c(=O)n(C2CCCC2)c2nc(N/N=C/c3cccs3)ncc21 |
